Assays:
[1] = system: Monocraphella nivalis (Microdochium nivale); assay: Monocraphella nivalis (Microdochium nivale) / liquid culture (Foot Rot Cereals); type: cell-based; settings: 96 h, 200 ppm in the formulation, inhibition of growth determined photometrically 4-5 days after application, read-out: disease control
Description: (§1) Monocraphella nivalis (Microdochium nivale)/Liquid Culture (Foot Rot Cereals) Conidia of the fungus from cryogenic storage are directly mixed into nutrient broth (PDB potato dextrose broth). After placing a (DMSO) solution of test compound into a microtiter plate (96-well format), the nutrient broth containing the fungal spores is added. The test plates are incubated at 24° C. and the inhibition of growth is determined photometrically 4-5 days after application.

[2] = system: Mycosphaerella Raminicola (Septoria tritici); assay: Mycosphaerella Raminicola (Septoria tritici) / liquid culture (Septoria Blotch); type: cell-based; settings: 200 ppm in the formulation, inhibition of growth determined photometrically 4 to 5 days after application, read-out: disease control
Description: as §1, with “Mycosphaerella Raminicola (Septoria tritici)/Liquid” for “Monocraphella nivalis (Microdochium nivale)/Liquid”, “(Septoria Blotch)” for “(Foot Rot Cereals)”, “4 to 5” for “4-5”

[3] = system: Mycosphaerella arachidis (Cercospora arachidicola); assay: Mycosphaerella arachidis (Cercospora arachidicola) / liquid culture (Early Leaf Spot); type: cell-based; settings: 96 h, 200 ppm in the formulation, inhibition of growth determined photometrically 4-5 days after application, read-out: disease control
Description: as §1, with “Mycosphaerella arachidis (Cercospora arachidicola)/Liquid” for “Monocraphella nivalis (Microdochium nivale)/Liquid”, “(Early Leaf Spot)” for “(Foot Rot Cereals)”

[4] = system: Glomerella lacenarium (Colletotrichum lacenarium); assay: Glomerella lacenarium (Colletotrichum lacenarium) / liquid culture (Anthracnose); type: cell-based; settings: 200 ppm in the formulation, inhibition of growth measured photometrically 3-4 days after application, read-out: disease control
Description: as §1, with “Glomerella lacenarium (Colletotrichum lacenarium)/Liquid” for “Monocraphella nivalis (Microdochium nivale)/Liquid”, “(Anthracnose)” for “(Foot Rot Cereals)”, “measured” for “determined”, “3-4” for “4-5”

[5] = system: Magnaporthe risea (Pyricularia Oryzae); assay: whole plant or invertebrate; type: in vivo; settings: foliar, read-out: disease control
[6] = system: Puccinia recondita f. Sp. Tritici; assay: Puccinia recondita f. sp. tritici / wheat / leaf disc preventative (Brown Rust); type: in vivo; settings: foliar, 168 h, 200 ppm in the formulation, compared to untreated, 7-9 days after application, read-out: disease control
[7] = system: Botryotinia fuckeliana (Botrytis cinerea); assay: Botryotinia fuckeliana (Botrytis cinerea) / liquid culture (Gray Mould); type: cell-based; settings: 72 h, 200 ppm in the formulation, inhibition of growth determined photometrically 3-4 days after application, read-out: disease control
Description: as §1, with “Botryotinia fuckeliana (Botrytis cinerea)/Liquid” for “Monocraphella nivalis (Microdochium nivale)/Liquid”, “(Gray Mould)” for “(Foot Rot Cereals)”, “(Vogels” for “(PDB potato dextrose”, “3-4” for “4-5”

[8] = system: Phaeosphaeria Nodorum (Septoria nodorum); assay: Phaeosphaeria nodorum (Septoria nodorum) / wheat / leaf disc preventative (Glume Blotch); type: in vivo; settings: Parastagonospora nodorum, foliar, 200 ppm in the formulation, compared to untreated, 5-7 days after application, read-out: disease control
Description: Phaeosphaeria Nodorum (Septoria nodorum)/Wheat/Leaf Disc Preventative (Glume Blotch) Wheat leaf segments cv. Kanzler are placed on agar in a multiwell plate (24-well format) and sprayed with the formulated test compound diluted in water. The leaf disks are inoculated with a spore suspension of the fungus 2 days after application. The inoculated test leaf disks are incubated at 20° C. and 75% rh under a light regime of 12 h light/12 h darkness in a climate cabinet and the activity of a compound is assessed as percent disease control compared to untreated when an appropriate level of disease damage appears in untreated check leaf disks (5-7 days after application).

COc1ccnc(C(=O)N[C@@H](C)C(=O)OC(C)C2(c3ccc(OC(F)(F)F)cc3)CC2)c1O (stereo partly drawn) [I.q.006, 1-[1-[4-(trifluoro-methoxy)phenyl]cyclo-propyl]ethyl (2S)-2-[(3-hydroxy-4-methoxy-pyridine-2-carbonyl)amino]propanoate]
≥ 80%: inhibition of growth at 200 ppm [1] | inhibition of growth at 200 ppm [2] | inhibition of growth at 200 ppm [3] | inhibition of growth at 200 ppm [4] | pest or weed control at 200 ppm [5] | pest or weed control at 200 ppm [6] | inhibition of growth at 200 ppm [7]

COc1ccnc(C(=O)N[C@@H](C)C(=O)OC(C)C2(c3ccc(Cl)cc3)CCCC2)c1O (stereo partly drawn) [I.k.014, 1-[1-(4-chlorophenyl)-cyclopentyl]ethyl (2S)-2-[(3-hydroxy-4-methoxy-pyridine-2-carbonyl)amino]propanoate]
≥ 80%: inhibition of growth at 200 ppm [1] | inhibition of growth at 200 ppm [2] | inhibition of growth at 200 ppm [3] | inhibition of growth at 200 ppm [4] | pest or weed control at 200 ppm [5] | pest or weed control at 200 ppm [6] | inhibition of growth at 200 ppm [7]

COc1ccnc(C(=O)N[C@@H](C)C(=O)OC(C)C2(c3cccc4ccccc34)CC2)c1OC(C)=O (stereo partly drawn) [I.v.066, 1-[1-(1-naphthyl)cyclo-propyl]ethyl (2S)-2-[(3-acetoxy-4-methoxy-pyridine-2-carbonyl)-amino]propanoate]
≥ 80%: inhibition of growth at 200 ppm [1] | pest or weed control at 200 ppm [8] | inhibition of growth at 200 ppm [2] | inhibition of growth at 200 ppm [3] | inhibition of growth at 200 ppm [4] | pest or weed control at 200 ppm [5] | pest or weed control at 200 ppm [6] | inhibition of growth at 200 ppm [7]

COc1ccnc(C(=O)N[C@@H](C)C(=O)OC(C)C(C)(C)c2ccc(Br)cc2)c1O (stereo partly drawn) [I.m.001, [2-(4-bromophenyl)-1,2-dimethyl-propyl] (2S)-2-[(3-hydroxy-4-methoxy-pyridine-2-carbonyl)amino]propanoate]
≥ 80%: inhibition of growth at 200 ppm [1] | pest or weed control at 200 ppm [8] | inhibition of growth at 200 ppm [2] | inhibition of growth at 200 ppm [3] | inhibition of growth at 200 ppm [4] | pest or weed control at 200 ppm [6] | inhibition of growth at 200 ppm [7]

COc1ccnc(C(=O)N[C@@H](C)C(=O)OC(C)C2(c3ccc(Br)cc3)CCC2)c1O (stereo partly drawn) [I.m.012, 1-[1-(4-bromophenyl)-cyclobutyl]ethyl (2S)-2-[(3-hydroxy-4-methoxy-pyridine-2-carbonyl)amino]propanoate]
≥ 80%: inhibition of growth at 200 ppm [1] | inhibition of growth at 200 ppm [2] | inhibition of growth at 200 ppm [3] | inhibition of growth at 200 ppm [4] | pest or weed control at 200 ppm [5] | pest or weed control at 200 ppm [6] | inhibition of growth at 200 ppm [7]

COc1ccnc(C(=O)N[C@@H](C)C(=O)OC(C)C2(c3ccc(Cl)cc3)CCCCC2)c1O (stereo partly drawn) [I.k.015, 1-[1-(4-chlorophenyl)-cyclohexyl]ethyl (2S)-2-[(3-hydroxy-4-methoxy-pyridine-2-carbonyl)amino]propanoate]
≥ 80%: inhibition of growth at 200 ppm [1] | pest or weed control at 200 ppm [8] | inhibition of growth at 200 ppm [2] | inhibition of growth at 200 ppm [3] | inhibition of growth at 200 ppm [4] | pest or weed control at 200 ppm [6] | inhibition of growth at 200 ppm [7]

COc1ccnc(C(=O)N[C@@H](C)C(=O)OC(C)C2(c3ccc(Cl)cc3)CCC2)c1O (stereo partly drawn) [I.k.012, 1-[1-(4-chlorophenyl)-cyclobutyl]ethyl (2S)-2-((3-hydroxy-4-methoxy-pyridine-2-carbonyl)-amino]propanoate]
≥ 80%: inhibition of growth at 200 ppm [1] | pest or weed control at 200 ppm [8] | inhibition of growth at 200 ppm [2] | inhibition of growth at 200 ppm [3] | inhibition of growth at 200 ppm [4] | pest or weed control at 200 ppm [5] | pest or weed control at 200 ppm [6] | inhibition of growth at 200 ppm [7]

COc1ccnc(C(=O)N[C@@H](C)C(=O)OC(C)C2(c3ccc(Cl)c(Cl)c3)CC2)c1O (stereo partly drawn) [I.t.006, 1-[1-(3,4-dichloro-phenyl)cyclopropyl]-ethyl (2S)-2-[(3-hydroxy-4-methoxy-pyridine-2-carbonyl)-amino]propanoate]
≥ 80%: inhibition of growth at 200 ppm [1] | inhibition of growth at 200 ppm [2] | inhibition of growth at 200 ppm [3] | inhibition of growth at 200 ppm [4] | pest or weed control at 200 ppm [5] | pest or weed control at 200 ppm [6] | inhibition of growth at 200 ppm [7]

COc1ccnc(C(=O)N[C@@H](C)C(=O)OC(C)C2(c3cccc4ccccc34)CC2)c1O (stereo partly drawn) [I.v.006, 1-[1-(1-naphthyl)cyclo-propyl]ethyl (2S)-2-[(3-hydroxy-4-methoxy-pyridine-2-carbonyl)-amino]propanoate]
≥ 80%: inhibition of growth at 200 ppm [1] | pest or weed control at 200 ppm [8] | inhibition of growth at 200 ppm [2] | inhibition of growth at 200 ppm [3] | inhibition of growth at 200 ppm [4] | pest or weed control at 200 ppm [6]

COc1ccnc(C(=O)N[C@@H](C)C(=O)OC(C)C2(c3ccccc3)CCCCC2)c1O (stereo partly drawn) [I.a.015, 1-(1-phenylcyclohexyl)-ethyl (2S)-2-[(3-hydroxy-4-methoxy-pyridine-2-carbonyl)amino]propanoate]
≥ 80%: inhibition of growth at 200 ppm [1] | pest or weed control at 200 ppm [8] | inhibition of growth at 200 ppm [2] | inhibition of growth at 200 ppm [3] | inhibition of growth at 200 ppm [4] | pest or weed control at 200 ppm [6] | inhibition of growth at 200 ppm [7]

COc1ccnc(C(=O)N[C@@H](C)C(=O)OC(C)C2(c3ccc(Cl)cc3)CC2)c1O (stereo partly drawn) [I.k.006, 1-[1-(4-chlorophenyl)-cyclopropyl]ethyl (2S)-2-[(3-hydroxy-4-methoxy-pyridine-2-carbonyl)amino]propanoate]
≥ 80%: inhibition of growth at 200 ppm [1] | pest or weed control at 200 ppm [8] | inhibition of growth at 200 ppm [2] | inhibition of growth at 200 ppm [3] | pest or weed control at 200 ppm [6] | inhibition of growth at 200 ppm [7]

COc1ccnc(C(=O)N[C@@H](C)C(=O)OC(C)C2(c3ccc(Cl)cc3)CCCCC2)c1OC(C)=O (stereo partly drawn) [I.k.075, 1-[1-(4-chlorophenyl)-cyclohexyl]ethyl (2S)-2-[(3-acetoxy-4-methoxy-pyridine-2-carbonyl)-amino]propanoate]
≥ 80%: pest or weed control at 200 ppm [8] | inhibition of growth at 200 ppm [2] | inhibition of growth at 200 ppm [3] | inhibition of growth at 200 ppm [4] | pest or weed control at 200 ppm [5] | pest or weed control at 200 ppm [6]

COc1ccnc(C(=O)N[C@@H](C)C(=O)OC(C)C(C)(C)c2cc(F)ccc2F)c1O (stereo partly drawn) [I.ah.001, [2-(2,5-difluoro-phenyl)-1,2-dimethyl-propyl] (2S)-2-[(3-hydroxy-4-methoxy-pyridine-2-carbonyl)-amino]propanoate]
≥ 80%: inhibition of growth at 200 ppm [1] | pest or weed control at 200 ppm [8] | inhibition of growth at 200 ppm [2] | inhibition of growth at 200 ppm [3] | inhibition of growth at 200 ppm [4] | pest or weed control at 200 ppm [5] | pest or weed control at 200 ppm [6]

COc1ccnc(C(=O)N[C@@H](C)C(=O)OC(C)C(C)(C)c2ccccc2)c1O (stereo partly drawn) [I.a.001, (1,2-dimethyl-2-phenyl-propyl) (2S)-2-[(3-hydroxy-4-methoxy-pyridine-2-carbonyl)amino]propanoate]
≥ 80%: inhibition of growth at 200 ppm [1] | pest or weed control at 200 ppm [8] | inhibition of growth at 200 ppm [2] | inhibition of growth at 200 ppm [3] | pest or weed control at 200 ppm [6] | inhibition of growth at 200 ppm [7]
